We go through 17 molecules from US8853418B2, “Cyclopentylpyrazoles as N-type calcium channel blockers” (Janssen Pharmaceutica NV, priority 2012, dated 2014).

By inhibition is commonly meant the change of the read-out against control, counted positive when it falls. The IC50 is the concentration that gives 50% inhibition.

Like-named read-outs stand apart in the source and are kept apart here.

In one assay the target is N-type calcium channel (Homo sapiens, UniProt Q00975). Kind of assay: Automated Electrophysiology Assay (QPatch-HT whole-cell patch clamp; low- and high-frequency stimulation). Type of assay: cell-based.
Sequence of N-type calcium channel (Q00975 whole entry): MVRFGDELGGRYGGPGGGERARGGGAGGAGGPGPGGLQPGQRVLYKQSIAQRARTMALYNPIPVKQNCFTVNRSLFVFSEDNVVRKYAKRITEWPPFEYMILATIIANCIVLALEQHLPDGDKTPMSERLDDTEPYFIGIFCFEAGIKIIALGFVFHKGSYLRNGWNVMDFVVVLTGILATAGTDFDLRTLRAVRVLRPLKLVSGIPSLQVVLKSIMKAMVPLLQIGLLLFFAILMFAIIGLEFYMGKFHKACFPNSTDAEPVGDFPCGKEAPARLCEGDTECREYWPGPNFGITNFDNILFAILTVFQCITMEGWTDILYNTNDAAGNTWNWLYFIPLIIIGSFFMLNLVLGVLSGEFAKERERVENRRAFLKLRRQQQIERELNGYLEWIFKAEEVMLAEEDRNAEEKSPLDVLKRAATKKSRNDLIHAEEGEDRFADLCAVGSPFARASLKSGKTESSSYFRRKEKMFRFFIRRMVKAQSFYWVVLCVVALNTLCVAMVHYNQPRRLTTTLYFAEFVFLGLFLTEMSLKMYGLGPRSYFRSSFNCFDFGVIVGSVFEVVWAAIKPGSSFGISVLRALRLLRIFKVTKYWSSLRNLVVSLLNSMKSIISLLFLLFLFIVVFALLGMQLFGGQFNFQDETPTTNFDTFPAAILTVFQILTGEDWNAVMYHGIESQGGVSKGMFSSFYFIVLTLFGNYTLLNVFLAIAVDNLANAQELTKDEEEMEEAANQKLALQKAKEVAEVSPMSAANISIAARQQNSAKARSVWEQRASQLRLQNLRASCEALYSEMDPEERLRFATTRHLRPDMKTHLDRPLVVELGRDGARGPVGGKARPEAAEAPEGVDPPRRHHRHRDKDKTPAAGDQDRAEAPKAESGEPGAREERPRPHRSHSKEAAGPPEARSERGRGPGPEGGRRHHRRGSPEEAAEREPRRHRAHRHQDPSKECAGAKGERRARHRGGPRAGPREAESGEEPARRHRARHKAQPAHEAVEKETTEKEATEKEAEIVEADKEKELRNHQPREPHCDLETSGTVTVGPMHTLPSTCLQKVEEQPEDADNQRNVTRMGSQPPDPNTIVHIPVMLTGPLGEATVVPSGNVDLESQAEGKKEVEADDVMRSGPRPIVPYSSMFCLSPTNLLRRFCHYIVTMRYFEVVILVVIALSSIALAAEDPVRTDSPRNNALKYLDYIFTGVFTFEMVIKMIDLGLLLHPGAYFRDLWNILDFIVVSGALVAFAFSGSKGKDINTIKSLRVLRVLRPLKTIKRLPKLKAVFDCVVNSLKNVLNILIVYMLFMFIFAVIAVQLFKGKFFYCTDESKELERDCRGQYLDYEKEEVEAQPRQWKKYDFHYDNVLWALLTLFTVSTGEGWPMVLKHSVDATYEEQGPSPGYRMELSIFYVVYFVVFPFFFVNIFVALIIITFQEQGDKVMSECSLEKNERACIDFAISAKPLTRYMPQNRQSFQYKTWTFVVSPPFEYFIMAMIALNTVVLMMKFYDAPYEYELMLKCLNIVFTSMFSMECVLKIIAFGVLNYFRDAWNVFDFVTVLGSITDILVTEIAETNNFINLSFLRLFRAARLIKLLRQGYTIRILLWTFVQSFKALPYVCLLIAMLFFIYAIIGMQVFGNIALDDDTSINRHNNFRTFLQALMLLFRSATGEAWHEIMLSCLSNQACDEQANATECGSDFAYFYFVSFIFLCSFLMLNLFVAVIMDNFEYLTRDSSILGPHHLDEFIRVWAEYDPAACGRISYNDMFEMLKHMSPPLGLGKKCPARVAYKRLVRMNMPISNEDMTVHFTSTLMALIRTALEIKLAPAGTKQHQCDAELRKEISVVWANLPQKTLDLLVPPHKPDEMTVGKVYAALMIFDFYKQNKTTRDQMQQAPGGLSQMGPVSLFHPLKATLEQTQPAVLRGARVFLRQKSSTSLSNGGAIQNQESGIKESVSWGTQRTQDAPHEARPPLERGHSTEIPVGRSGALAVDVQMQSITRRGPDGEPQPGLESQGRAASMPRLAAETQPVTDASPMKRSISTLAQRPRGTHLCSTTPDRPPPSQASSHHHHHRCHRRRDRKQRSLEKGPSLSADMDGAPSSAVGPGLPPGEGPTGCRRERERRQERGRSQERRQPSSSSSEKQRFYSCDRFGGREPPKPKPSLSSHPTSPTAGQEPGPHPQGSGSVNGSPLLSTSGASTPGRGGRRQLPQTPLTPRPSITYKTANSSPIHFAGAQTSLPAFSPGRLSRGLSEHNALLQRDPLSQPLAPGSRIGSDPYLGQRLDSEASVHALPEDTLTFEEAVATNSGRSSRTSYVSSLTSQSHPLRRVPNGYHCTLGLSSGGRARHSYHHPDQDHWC
Sequence of N-type calcium channel (P54284 whole entry partner): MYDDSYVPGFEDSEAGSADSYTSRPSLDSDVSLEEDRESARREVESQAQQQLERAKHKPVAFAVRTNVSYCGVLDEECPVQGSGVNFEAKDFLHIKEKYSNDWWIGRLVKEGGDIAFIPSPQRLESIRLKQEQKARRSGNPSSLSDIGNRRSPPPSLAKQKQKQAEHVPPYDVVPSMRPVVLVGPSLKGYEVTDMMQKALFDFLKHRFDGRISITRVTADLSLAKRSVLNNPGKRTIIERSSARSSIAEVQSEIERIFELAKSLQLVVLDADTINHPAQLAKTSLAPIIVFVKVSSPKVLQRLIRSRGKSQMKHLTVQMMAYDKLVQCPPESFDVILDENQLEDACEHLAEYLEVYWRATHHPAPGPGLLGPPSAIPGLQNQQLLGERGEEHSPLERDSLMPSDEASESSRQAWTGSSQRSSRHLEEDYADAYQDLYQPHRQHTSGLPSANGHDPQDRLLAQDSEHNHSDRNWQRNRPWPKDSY
Sequence of N-type calcium channel (P54289 25-946 partner limits assumed): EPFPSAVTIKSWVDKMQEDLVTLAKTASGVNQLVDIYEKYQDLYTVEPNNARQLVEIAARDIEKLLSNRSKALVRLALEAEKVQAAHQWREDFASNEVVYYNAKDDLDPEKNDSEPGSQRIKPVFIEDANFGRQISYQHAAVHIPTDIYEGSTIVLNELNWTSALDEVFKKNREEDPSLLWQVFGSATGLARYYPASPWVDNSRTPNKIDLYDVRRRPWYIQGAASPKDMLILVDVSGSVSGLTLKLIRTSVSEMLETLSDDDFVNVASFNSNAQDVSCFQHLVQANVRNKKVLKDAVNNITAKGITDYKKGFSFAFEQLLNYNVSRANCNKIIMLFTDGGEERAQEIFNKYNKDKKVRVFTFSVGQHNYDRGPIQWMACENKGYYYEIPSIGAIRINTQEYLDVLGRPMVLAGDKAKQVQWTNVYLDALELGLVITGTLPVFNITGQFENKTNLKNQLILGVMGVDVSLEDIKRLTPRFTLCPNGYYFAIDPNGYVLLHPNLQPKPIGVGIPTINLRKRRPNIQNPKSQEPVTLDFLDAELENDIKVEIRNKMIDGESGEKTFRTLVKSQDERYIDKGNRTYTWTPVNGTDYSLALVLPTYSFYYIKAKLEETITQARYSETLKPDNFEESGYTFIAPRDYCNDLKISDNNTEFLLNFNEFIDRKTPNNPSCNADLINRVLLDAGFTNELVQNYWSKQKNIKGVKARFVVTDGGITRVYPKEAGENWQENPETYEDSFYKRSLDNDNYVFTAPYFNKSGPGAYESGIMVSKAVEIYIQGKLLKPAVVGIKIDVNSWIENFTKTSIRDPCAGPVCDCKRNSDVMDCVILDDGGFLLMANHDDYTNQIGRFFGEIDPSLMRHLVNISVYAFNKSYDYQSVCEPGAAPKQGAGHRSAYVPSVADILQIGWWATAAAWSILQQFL
Sequence of N-type calcium channel (P54289 947-1103 partner limits assumed): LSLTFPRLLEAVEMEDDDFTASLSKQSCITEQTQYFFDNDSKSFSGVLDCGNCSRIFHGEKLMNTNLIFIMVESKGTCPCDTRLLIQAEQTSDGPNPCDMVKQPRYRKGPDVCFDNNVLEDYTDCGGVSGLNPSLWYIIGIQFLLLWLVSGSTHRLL
For assay [1], the system named is Complete Freund's Adjuvant (CFA)-Induced Hyperalgesia. The assay is described as follows: Complete Freund's Adjuvant (CFA)-Induced Hyperalgesia, radiant heat. It counts as in vivo, Sprague-Dawley rats. Conditions: rat CFA radiant heat model of inflammatory pain; FIG. 1.
Assay [2] has as its target N-type calcium channel (α1B (Cav2.2), β3 and α2δ subunits) (Homo sapiens, UniProt Q00975). Kind of assay: Functional Assay: Antagonism of N-Type Calcium Channel (FDSS calcium mobilization, KCl depolarization). Conditions: for IC50: HEK cell line, 50 mM KCl depolarization, six-point concentration-response, read-out: FDSS IC50. It counts as cell-based. Put shortly: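 HEK cells stably co-expressing α1B (Cav2.2), β3 and α2δ were loaded with calcium dye, then given compound with fluorescence recorded for 5 min before 50 mM KCl depolarisation and 3 min more reading. IC50 came from six-point curves of maximal fluorescence, normalised to KCl maximum and buffer minimum.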
A general note: Calcium assays in cells follow changes in intracellular calcium, usually with a dye or a luminescent sensor.

Where [3] appears, read: 0.1 μM, high-frequency stimulation (15th pulse), read-out: QPatch at High Frequency % Inhibition.
Where [4] appears, read: low frequency, 0.1 μM, read-out: QPatch at Low Frequency % Inhibition.
[5] abbreviates: high-frequency stimulation (15th pulse), read-out: QPatch at High Frequency % Inhibition.
Setting [6] is: low frequency, read-out: QPatch at Low Frequency % Inhibition.

Sequence of N-type calcium channel (α1B (Cav2.2), β3 and α2δ subunits) (Q00975 whole entry): as the sequence (Q00975 whole entry) above
Sequence of N-type calcium channel (α1B (Cav2.2), β3 and α2δ subunits) (P54284 whole entry partner): as the sequence (P54284 whole entry partner) above
Sequence of N-type calcium channel (α1B (Cav2.2), β3 and α2δ subunits) (P54289 25-946 partner limits assumed): as the sequence (P54289 25-946 partner limits assumed) above
Sequence of N-type calcium channel (α1B (Cav2.2), β3 and α2δ subunits) (P54289 947-1103 partner limits assumed): as the sequence (P54289 947-1103 partner limits assumed) above

On to `COc1ccccc1-n1nc2c(c1-c1ccc(Cl)cc1)CC1(C2)OCC(C)(C)CO1` [Compound 71, 3-(4-chlorophenyl)-2-(2-methoxyphenyl)-5′,5′-dimethyl-2,6-dihydro-4H-spiro[cyclopenta[c]pyrazole-5,2′-[1,3]dioxane]], for which the inhibition at 0.1 µM at N-type calcium channel (setting [3]) turned out to be 37%. At N-type calcium channel (setting [4]), the inhibition at 0.1 µM came to 21%. In addition, the antihyperalgesic effect entry in assay [1] is listed as “antihyperalgesic effect”. Moreover, in assay [2], the inhibition at 0.33 µM worked out at 89% and the concentration for half-maximal inhibition (IC50) came to 13 nM.

Consider `CCOc1ccccc1-n1nc2c(c1-c1ccc(Cl)cc1)C[C@@H](N(C)S(=O)(=O)N(C)C)C2` [Compound 46, N-[(5R)-3-(4-chlorophenyl)-2-(2-ethoxyphenyl)-2,4,5,6-tetrahydrocyclopenta[c]pyrazol-5-yl]-N,N′,N′-trimethylsulfamide], for which the inhibition at 0.1 µM on N-type calcium channel (setting [3]) is 50%; at N-type calcium channel (setting [4]), 21%. In addition, the inhibition at 0.33 µM in assay [2] was determined as 99%. For the same molecule, the IC50 in assay [2] turned out to be 2.6 nM.

As to `COc1ccccc1-n1nc2c(c1-c1ccc(Cl)cc1)C[C@H](OC(=O)C1CCCCC1)C2` [Compound 78, (5S)-3-(4-chlorophenyl)-2-(2-methoxyphenyl)-2,4,5,6-tetrahydrocyclopenta[c]pyrazol-5-yl cyclohexanecarboxylate], the inhibition at 0.1 µM at N-type calcium channel (setting [3]) is 27%. The inhibition at 0.1 µM on N-type calcium channel (setting [4]) was found to be 15%. In assay [2], the inhibition at 0.33 µM came out at 78% and the IC50 worked out at 93 nM.

As to `CCOc1ccccc1-n1nc2c(c1-c1ccc(Cl)cc1)CC(n1ccnn1)C2` (stereo not shown) [Compound 42, 3-(4-chlorophenyl)-2-(2-ethoxyphenyl)-5-(1H-1,2,3-triazol-1-yl)-2,4,5,6-tetrahydrocyclopenta[c]pyrazole], the inhibition at 1 µM on N-type calcium channel (setting [5]) was 87%. The inhibition at 1 µM on N-type calcium channel (setting [6]) is 86%. In assay [2], the inhibition at 0.33 µM is 91% and the IC50 is 19 nM.

Regarding `CN(C)S(=O)(=O)N(C)[C@@H]1Cc2nn(-c3cccc4c3OCC4)c(-c3ccc(Cl)cc3)c2C1` [Compound 50, N-[(5S)-3-(4-chlorophenyl)-2-(2,3-dihydro-1-benzofuran-7-yl)-2,4,5,6-tetrahydrocyclopenta[c]pyrazol-5-yl]-N,N′,N′-trimethylsulfamide], the inhibition at 0.1 µM is 41% at N-type calcium channel (setting [3]) and 33% on N-type calcium channel (setting [4]). For the same molecule, the inhibition at 0.33 µM in assay [2] came out at 95%. Moreover, in assay [2], the IC50 was determined as 14 nM.

Regarding `COc1ccccc1-n1nc2c(c1-c1ccc(Cl)cc1)C[C@H](O[C@H]1C[C@@H]3CC[C@H]1C3)C2` [Compound 89, (5S)-5-[(1S,2S,4R)-bicyclo[2.2.1]hept-2-yloxy]-3-(4-chlorophenyl)-2-(2-methoxyphenyl)-2,4,5,6-tetrahydrocyclopenta[c]pyrazole], the figures for the inhibition at 0.1 µM at N-type calcium channel (setting [3]) and on N-type calcium channel (setting [4]) were 26% and 6%, respectively. Moreover, the inhibition at 0.33 µM in assay [2] worked out at 85%. Further, the IC50 in assay [2] amounted to 49 nM.

As for `CCOc1ccccc1-n1nc2c(c1-c1ccc(Cl)cc1)C[C@@H](NC(=O)C(F)(F)F)C2` [Compound 45, N-[(5R)-3-(4-chlorophenyl)-2-(2-ethoxyphenyl)-2,4,5,6-tetrahydrocyclopenta[c]pyrazol-5-yl]-2,2,2-trifluoroacetamide], the inhibition at 0.1 µM on N-type calcium channel (setting [3]) was 68%. The inhibition at 0.1 µM on N-type calcium channel (setting [4]) came to 60%. Also, in assay [2], the inhibition at 0.33 µM came out at 94% and the IC50 was determined as 4 nM.

Take `COc1ccccc1-n1nc2c(c1-c1ccc(Cl)cc1)CC(NS(=O)(=O)C(C)C)C2` (stereo not shown) [Compound 33, N-[3-(4-chlorophenyl)-2-(2-methoxyphenyl)-2,4,5,6-tetrahydrocyclopenta[c]pyrazol-5-yl]propane-2-sulfonamide]: the inhibition at 0.1 µM at N-type calcium channel (setting [3]) is 42%; at N-type calcium channel (setting [4]), 35%. Besides, the IC50 in assay [2] was 18 nM.

Take `CCOc1ccc(-c2c3c(nn2-c2ccccc2OC)CC2(C3)OC(C)(C)C(C)(C)O2)cn1` [Compound 108, 3-(6-ethoxypyridin-3-yl)-2-(2-methoxyphenyl)-4′,4′,5′,5′-tetramethyl-2,6-dihydro-4H-spiro[cyclopenta[c]pyrazole-5,2′-[1,3]dioxolane]]: on N-type calcium channel (setting [3]), the inhibition at 0.1 µM is 13%. Further, the inhibition at 0.1 µM at N-type calcium channel (setting [4]) is 3%. For the same molecule, in assay [2], the inhibition at 0.33 µM came out at 86% and the IC50 was 10 nM.

Consider `CCOc1ccccc1-n1nc2c(c1-c1ccc(Cl)cc1)C[C@@H](NS(=O)(=O)C(C)C)C2` [Compound 44, N-[(5R)-3-(4-chlorophenyl)-2-(2-ethoxyphenyl)-2,4,5,6-tetrahydrocyclopenta[c]pyrazol-5-yl]propane-2-sulfonamide], for which the inhibition at 0.1 µM at N-type calcium channel (setting [3]) stood at 48%. Moreover, the inhibition at 0.1 µM on N-type calcium channel (setting [4]) was determined as 42%. For the same molecule, in assay [2], the inhibition at 0.33 µM is 89% and the IC50 was found to be 32 nM.

As to `COc1ccccc1-n1nc2c(c1-c1ccc(Cl)cc1)CC(N(C)S(C)(=O)=O)C2` (stereo not shown) [Compound 37, N-[3-(4-chlorophenyl)-2-(2-methoxyphenyl)-2,4,5,6-tetrahydrocyclopenta[c]pyrazol-5-yl]-N-methylmethanesulfonamide], the inhibition at 0.1 µM was 46% at N-type calcium channel (setting [3]) and 44% at N-type calcium channel (setting [4]). Moreover, in assay [2], the IC50 is 6.4 nM.

For `COc1ccccc1-n1nc2c(c1-c1ccc(Cl)cc1)CC1(C2)O[C@H]2CCC[C@H]2O1` (stereo partly drawn) [Compound 114, (3aR,6aS)-3′-(4-chlorophenyl)-2′-(2-methoxyphenyl)-2′,4,5,6,6′,6a-hexahydro-3aH,4′H-spiro[cyclopenta[d][1,3]dioxole-2,5′-cyclopenta[c]pyrazole]], on N-type calcium channel (0.1 μM, high-frequency stimulation (15th pulse)), the “QPatch at High Frequency % Inhibition” value was 65%. Also, on N-type calcium channel (low frequency, 0.1 μM), the “QPatch at Low Frequency % Inhibition” value stood at 44%. Moreover, in assay [2], the inhibition at 0.33 µM was 90% and the IC50 is 5 nM.

Consider `COc1ccccc1-n1nc2c(c1-c1ccc(Cl)cc1)CC1(C2)O[C@H](C)[C@@H](C)O1` [Compound 98, (4′R,5′R)-3-(4-chlorophenyl)-2-(2-methoxyphenyl)-4′,5′-dimethyl-2,6-dihydro-4H-spiro[cyclopenta[c]pyrazole-5,2′-[1,3]dioxolane]], for which, at N-type calcium channel (setting [3]), the inhibition at 0.1 µM was 28%. At N-type calcium channel (setting [4]), the inhibition at 0.1 µM is -6%. Besides, in assay [2], the inhibition at 0.33 µM was 102% and the IC50 was 5.9 nM.

`COc1ccccc1-n1nc2c(c1-c1ccc(Cl)cc1)CC(OC(=O)N1CCOCC1)C2` (stereo not shown) [Compound 29, 3-(4-chlorophenyl)-2-(2-methoxyphenyl)-2,4,5,6-tetrahydrocyclopenta[c]pyrazol-5-yl morpholine-4-carboxylate]: the inhibition at 0.1 µM at N-type calcium channel (setting [3]) was 21%; on N-type calcium channel (setting [4]), -8%. In addition, in assay [2], the IC50 stood at 43 nM.

Consider `COc1ccccc1-n1nc2c(c1-c1ccc(Cl)cc1)CC(CNS(C)(=O)=O)C2` (stereo not shown) [Compound 8, N-{[3-(4-chlorophenyl)-2-(2-methoxyphenyl)-2,4,5,6-tetrahydrocyclopenta[c]pyrazol-5-yl]methyl}methanesulfonamide], for which, on N-type calcium channel (setting [5]), the inhibition at 0.25 µM is -12% and the inhibition at 1 µM turned out to be 57%. In addition, at N-type calcium channel (setting [6]), the inhibition at 0.25 µM was -9% and the inhibition at 1 µM came to 62%. For the same molecule, in assay [2], the inhibition at 0.33 µM is 96% and the IC50 stood at 55 nM.

For `COc1ccccc1-n1nc2c(c1-c1ccc(Cl)cc1)CC(NS(=O)(=O)N(C)C)C2` (stereo not shown) [Compound 34, N′-[3-(4-chlorophenyl)-2-(2-methoxyphenyl)-2,4,5,6-tetrahydrocyclopenta[c]pyrazol-5-yl]-N,N-dimethylsulfamide], the inhibition at 0.1 µM on N-type calcium channel (setting [3]) worked out at 37%; at N-type calcium channel (setting [4]) it was 34%. Besides, the IC50 in assay [2] turned out to be 14 nM.

As for `COc1ccccc1-n1nc2c(c1-c1ccc(C#N)cc1)C[C@H](n1cc(C(C)(C)C)nn1)C2` [Compound 130, 4-[(5S)-5-(4-tert-butyl-1H-1,2,3-triazol-1-yl)-2-(2-methoxyphenyl)-2,4,5,6-tetrahydrocyclopenta[c]pyrazol-3-yl]benzonitrile], the inhibition at 1 µM at N-type calcium channel (setting [5]) was determined as 57%. Further, the inhibition at 1 µM on N-type calcium channel (setting [6]) came out at 39%. In addition, in assay [2], the inhibition at 0.33 µM was 92% and the IC50 was found to be 50 nM.
